Results published in ChEMBL document CHEMBL1201862, “PubChem BioAssay data set” (2004).
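Values below derive from 48-hour exposures of cells grown in 96-well plates, with endpoints linearly interpolated between the two concentrations bracketing the appropriate inhibition level. Abbreviation: GI50, concentration required for 50% inhibition of growth.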 Calls of active or inactive are those of the source. No stated cut-off is given here; in the data, active = GI50 up to about 1.1 µM and inactive = higher.

Key:
Assay in all cases: NCI-60 cell line screen, 48 h
[1] = tested on: OVCAR-4
[2] = tested on: KM12
[3] = tested on: OVCAR-8
[4] = tested on: UACC-62
[5] = tested on: SF-295
[6] = tested on: SNB-75
[7] = tested on: HOP-62
[8] = tested on: NCI-H23
[9] = tested on: NCI-H522
[10] = tested on: IGROV-1
[11] = tested on: UACC-257
[12] = tested on: TK-10
[13] = tested on: OVCAR-5
[14] = tested on: MOLT-4
[15] = tested on: SW-620
[16] = tested on: SK-MEL-5
[17] = tested on: SN12C
[18] = tested on: SK-OV-3
[19] = tested on: A498

Measured: GI50

CC(=O)O[C@@]1(C)[C@@H](C)C(=O)O[C@@H]2CCN3CC=C(COC(=O)[C@]1(C)O)[C@H]23
inactive: [1] > 100 µM | [2] > 100 µM | [3] > 100 µM | [4] > 100 µM | [5] > 10 µM | [6] 41 µM | [7] > 100 µM | [8] > 100 µM | [9] > 100 µM | [10] > 100 µM | [11] > 100 µM | [12] > 100 µM | [13] > 100 µM | [14] > 100 µM | [15] > 100 µM | [16] > 100 µM

CC1=CC(=O)/C(=C/N2C(=O)CNC2=S)C(=O)O1
inactive: [1] > 100 µM | [2] > 100 µM | [3] > 100 µM | [17] > 100 µM | [5] > 100 µM | [6] > 100 µM | [7] > 100 µM | [8] > 100 µM | [10] > 100 µM | [18] > 100 µM | [11] > 100 µM | [12] > 100 µM | [13] > 100 µM | [14] > 100 µM | [15] > 100 µM | [16] > 100 µM

N=C(c1ccccc1)N(c1ccccc1)c1ccccc1
inactive: [1] 88.9 µM | [2] 25.2 µM | [3] > 100 µM | [17] 22.5 µM | [5] > 100 µM | [6] > 100 µM | [7] > 100 µM | [8] > 100 µM | [9] 73.3 µM | [11] > 100 µM | [12] > 100 µM | [13] 76.7 µM | [15] > 100 µM

COc1cc2c(cn1)[nH]c1ccccc12
inactive: [1] > 100 µM | [2] > 100 µM | [3] > 100 µM | [17] > 100 µM | [4] 53 µM | [5] > 100 µM | [6] 55.8 µM | [7] > 100 µM | [8] > 100 µM | [9] 61.2 µM | [10] > 100 µM | [18] > 100 µM | [11] 85.1 µM | [12] > 100 µM | [13] > 100 µM | [14] > 100 µM | [15] 46.3 µM | [16] 47.4 µM

Nc1ccc2ncc(NCc3ccc(F)cc3)nc2c1
inactive: [1] 92.3 µM | [2] > 100 µM | [3] 90.4 µM | [17] 87.5 µM | [4] 54.2 µM | [5] 56.2 µM | [6] 25.4 µM | [7] 40.6 µM | [8] > 100 µM | [9] 83.2 µM | [18] 85.9 µM | [11] > 100 µM | [12] 97.3 µM | [13] > 100 µM | [14] 41.9 µM | [15] > 100 µM | [16] 48.1 µM

CC1(C)N=C(c2ccccn2)C(c2ccccn2)=NC1(C)C
inactive: [1] > 100 µM | [2] > 100 µM | [3] > 100 µM | [17] > 100 µM | [4] > 100 µM | [19] > 100 µM | [5] > 100 µM | [10] > 100 µM | [11] > 100 µM | [13] > 100 µM | [14] > 100 µM | [15] > 100 µM | [16] > 100 µM

CC1CCCP(=O)(c2ccccc2)CCC1 (stereo unspecified)
inactive: [1] > 100 µM | [2] > 100 µM | [3] > 100 µM | [17] > 100 µM | [4] > 100 µM | [19] > 100 µM | [5] > 100 µM | [6] > 100 µM | [7] > 100 µM | [8] > 100 µM | [10] > 100 µM | [18] > 100 µM | [11] > 100 µM | [12] > 100 µM | [13] > 100 µM | [14] > 100 µM | [15] > 100 µM | [16] > 100 µM
